# Where a name gives a salt, the structure may show the parent alone.
# Tests used:
# KU812 cells = format: cell-based; settings: human, 48 h
# Excerpt: (§1) KU812 stable cell lines were created by co-transfecting wild-type KU812 cells with pEGFP-NI (G418 selectable marker) and the μLCRβprRluc AγprFluc dual reporter a kind gifts from Dr. George Stamatoyannopoulos (University of Washington). Briefly, the 315-bp human β-globin gene promoter sequence was inserted upstream of the Renilla along with a polyadenylation signal downstream to create PβprRluc. Likewise, 1.4 kb of human aγ-globin promoter was inserted upstream of firefly luciferase to create AγprFluc. The μLCR (locus control region), PβprRluc, and AγprFluc fragments were subsequently cloned into the mammalian vector, pRL-null. […] FK228 and analogues were screened at concentrations between 1-1000 nM for 48 hr and cell toxicity was monitored by 2% Trypan blue exclusion. The effect of drug treatments on γ-globin and β-globin promoter activity was monitored by luciferase assay.
# Luciferase activity, an indicator of γ-globin promoter induction, was monitored KU812 μLCRβprRlucγprFluc—stable cells cultured in the presence of absence (untreated control, UT) of MMF at varying dosages for 48 hour according to the method discussed above and in MaKala et al., Anemia, Volume 2012, Article ID 428137) (2012).
# HU (100 μM; Sigma) was included as a positive control and cell viability was monitored by trypan blue exclusion. […] Globin expression was measured by qPCR also as previously published. […]
# [1] = test system: HbF in primary human erythroid cells; test: FACS of HbF positive cells in primary human erythroid progenitors; format: cell-based; settings: DMF 200 μM, MMF 1000 μM, HU 100 μM
# Method: HU (100 μM; Sigma) was included as a positive control and cell viability was monitored by trypan blue exclusion. Findings in KU812 cells were confirmed in human primary erythroid progenitor cells grown in liquid culture using a published protocol. Globin expression was measured by qPCR also as previously published. HbF protein was measured relative to that of isotype control using FITC conjugated anti-human HbF antibody (1:1000; Santa Cruz Biotechnology, Santa Cruz, Calif.) and fluorescence activated cell sorting (see supplemental methods for details). HbF protein expression was confirmed by Western blot analysis using anti-human HbF antibody (1:1000; Bethyl Laboratories, Inc., Montgomery, Tex.) and horseradish peroxidase-conjugated sheep IgG (1:1000; Santa Cruz).
# Erythroid progenitors were generated in vitro from adult CD34^+ stem cells ([…] technologies, Inc. Vancouver, Canada) using a 2-stage culture system that achieves terminal erythroid differentiation18. CD34^+ stem cells (500,000) were grown in First medium consisting of Iscove Modified Dulbecco Media containing human AB serum, interleukin-3 (10 ng/mL), stem cell factor (10 ng/mL) and erythropoietin (2 IU/mL). On day 7, the erythroblasts were placed in Second medium with 2 IU/mL erythropoietin for the duration. […] Then cells were harvested for total RNA and protein for qPCR, FACS and western blot analyses.
# After drug treatments, 500,000 cells were washed twice with phosphate buffered saline and then fixed in 4% paraformaldehyde and permeated with ice-cold acetone/methanol (4:1). Cells were incubated with anti-γ-globin-FITC antibody (Santa Cruz Biotechnology, Santa Cruz, Calif.) in PBT (PBS/01% BSA/0.1% triton X100) solution for 20 min to stain intracellular HbF antigens. The labeled cells were analyzed by Bectin Dickerson LSR-II flow cytometer (BD Bioscience). All experiments were performed in triplicate.
# [2] = test system: γ-globin gene expression in KU812 cells; test: γ-globin gene expression by qPCR in KU812 cells; format: cell-based, human; settings: 100 μM, depending upon the incubation time (3-24 h)
# Method: KU812 cells were cultured in the presence or absence of MMF for time periods ranging from 0-24 hours and evaluated for changes in γ-globin gene expression relative to 18S ribosomal RNA expression (internal experimental control) by qPCR (FIG. 1). In comparison to control, untreated (UT) cells, significant increases in γ-globin gene expression were observed as early as 3 hours post-incubation with low-does (100 μM) MMF treatment. This MMF-induced increase in γ-globin expression persisted up to 24 h post-exposure to the compound. Data in FIG. 1 are represented as means±standard error of the mean (SEM); *P<0.05, **P<0.01 and ***P<0.001.
# FIG. 2 is reproduced from MaKala et al., Anemia, Volume 2012, Article ID 428137) (2012). […] At 100 μM, the same concentration that we used for MMF, HU induces γ-globin gene expression ˜2-fold.
# [3] = test system: γ/β-globin mRNA in primary human erythroid cells; test: γ/β-globin mRNA by qPCR in primary human erythroid progenitors; format: cell-based; settings: DMF 200 μM, MMF 1000 μM
# Method: HU (100 μM; Sigma) was included as a positive control and cell viability was monitored by trypan blue exclusion. Findings in KU812 cells were confirmed in human primary erythroid progenitor cells grown in liquid culture using a published protocol. Globin expression was measured by qPCR also as previously published. HbF protein was measured relative to that of isotype control using FITC conjugated anti-human HbF antibody (1:1000; Santa Cruz Biotechnology, Santa Cruz, Calif.) and fluorescence activated cell sorting (see supplemental methods for details). HbF protein expression was confirmed by Western blot analysis using anti-human HbF antibody (1:1000; Bethyl Laboratories, Inc., Montgomery, Tex.) and horseradish peroxidase-conjugated sheep IgG (1:1000; Santa Cruz). Erythroid progenitors were generated in vitro from adult CD34^+ stem cells ([…] technologies, Inc. Vancouver, Canada) using a 2-stage culture system that achieves terminal erythroid differentiation18. CD34^+ stem cells (500,000) were grown in First medium consisting of Iscove Modified Dulbecco Media containing human AB serum, interleukin-3 (10 ng/mL), stem cell factor (10 ng/mL) and erythropoietin (2 IU/mL). On day 7, the erythroblasts were placed in Second medium with 2 IU/mL erythropoietin for the duration. […] Then cells were harvested for total RNA and protein for qPCR, FACS and western blot analyses.
# γ-globin promoter = test: KU812 dual-luciferase reporter assay of γ-globin promoter activity; format: cell-based, human; settings: for concentration of maximal induction of γ-globin promoter activity: 0-1000 μM, 48 h
# Excerpt: as §1, with “pRL-null. The dual-luciferase reporter lines were produced using 10 μg each of linearized μLCRβprRluc AγprFluc and pEGFP-NI plasmids co-transfected into KU812 cells by electroporation at 260 V, 975 μF (Bio-Rad, Hercules Calif.). After 72 hr, G418 was added at a concentration of […] for 3 days then maintained under selection pressure indefinitely at a concentration of […].” for “pRL-null.”
# Luciferase activity was monitored under the different experimental conditions using the Dual Luciferase Assay Reporter System (Promega, Madison, Wis.). The activity of firefly luciferase represents γ-globin promoter activity (γF), while the renilla luciferase is the read-out for β-globin promoter activity (βR). […] After drug treatments, KU812 stable cells were washed with 1× phosphate buffered saline and lysed in 1× Passive Lysis Buffer for 15 min, then protein extracts were added to the Luciferase Assay Reagent II and firefly luciferase activity quantified in a Turner Designs TD-20/20 luminometer (Sunnyvale, Calif.). […] Total protein was determined by Bradford assay on a Beckman DU 640 spectrophotometer (Chaska, Minn.) and luciferase activity was corrected for total protein. […]
# OCTN1 = OCTN1 mRNA expression in ARPE-19 cells; format: cell-based, human; settings: RPE (ARPE-19) cells; MMF 1000 μM, HU 100 μM
# Excerpt: Red blood cells, cells of erythroid lineage, are the primary producers of hemoglobin. […] The includes retinal pigment epithelial (RPE) cells, a cell type critical to normal visual function. […] Data are represented as mean±SEM; *p<0.05.
# [4] = test system: γ-globin gene expression in primary RPE cells; test: γ-globin/HbF expression in primary RPE cells from humanized mice; format: cell-based, mouse; settings: ARPE-19 and primary RPE cells (FIGS. 8B, 8D, 8E, 11)
# Method: The effect of MMF on primary RPE cells was also investigated. RPE cells were isolated from the eyes of humanized mice and used to establish primary RPE cell cultures. […] Primary RPE cells were cultured in the presence or absence of MMF at concentrations ranging from 0-1000 μM for a period of 9 hours. Total RNA was prepared and γ-globin gene expression analyzed by qPCR. […] Data are represented as mean±SEM; *P<0.01, **P<0.001.
# Identical experiments were performed using the human RPE cell line ARPE-19, an established model for the study of RPE19, and primary RPE cell cultures established from the eyes of HbAA- and HbSS-expressing Townes humanized knock-in SCD mice (Jackson Laboratories, Bar Harbor, Me.) per our published method. Additionally, MMF (1 mM final concentration) or PBS (control) was injected intravitreally into the eyes of HbAA and HbSS mice and retinal γ-globin and HbF expression analyzed by qPCR and immunofluorescence 24 h post-injection. Animal studies were approved by the Georgia Regents University Institutional Committee for Animal Use in Research and Education.
# HbF protein production in ARPE-19 cells exposed to MMF (1000 μM) for 24 h was evaluated using a FITC-conjugated HbF antibody and fluorescence microscopy (data not shown). Cell nuclei were counterstained with DAPI. […]
# [5] = single doses, healthy adults, cited from earlier work
# [6] = test system: small intestinal cell model; settings: cited from earlier work
smiles,measurement,setting,value
"COC(=O)/C=C/C(=O)O [MMF, monomethyl fumarate]",Cell viability by Trypan blue exclusion,KU812 cells,90-95%
same,increase in HbF positive cells (FACS),[1],32 fold
same,"γ-globin gene expression, fold increase vs untreated",[2],2-4 fold
same,γ/β-globin mRNA induction,[3],8 fold
same,concentration of maximal induction of γ-globin promoter activity,γ-globin promoter,1000 µM
"NC(=O)NO [HU, hydroxyurea]",OCTN1 expression,OCTN1,little to no effect
same,γ-globin expression and HbF production in RPE cells,[4],induction of γ-globin expression and HbF production
same,increase in HbF positive cells (FACS),[1],15 fold
CCN(CC)C(=O)COC(=O)/C=C/C(=O)OC [XP23829],tolerability,[5]; four oral formulations,generally well-tolerated
same,levels of MMF in the blood,[5],expected levels of MMF in the blood
"COC(=O)/C=C/C(=O)OC [DMF, dimethyl fumarate]",increase in HbF positive cells (FACS),[1],28 fold
same,permeability,[6]; in vitro small intestinal cell model,high permeability
same,metabolism in the intestinal tissue,[6]; intestinal tissue,complete metabolism
same,concentration of maximal induction of γ-globin promoter activity,γ-globin promoter,200 µM
same,effectiveness as inducer of γ-globin promoter activity at higher concentrations,γ-globin promoter; concentrations higher than 100-200 μM,declined substantially
